# Source: patent publication EP0067910B1, “Compounds and compositions for treatment of ocular hypertension” (priority 1981, dated 1982)
# Where a name gives a salt, the structure may show the parent alone.
# Columns and labels:
# [1] = test system: conscious rabbits; assay: Ocular response (intraocular pressure, pupil diameter) to a single topical application to one eye of conscious rabbits; type: in vivo; conditions: for Intraocular Pressure (mm Hg) Mean Δ: control eye minus exp. eye; for Intraocular Pressure (mm Hg) Mean Δ / Pupil Diameter (mm) Mean Δ / Intraocular Pressure (mm Hg) Exp. Eye / Pupil Diameter (mm) Exp. Eye: mean of maximal responses; for Pupil Diameter (mm) Mean Δ: difference between pairs of eyes; for Intraocular Pressure (mm Hg) Exp. Eye / Pupil Diameter (mm) Exp. Eye: single topical application; for Intraocular Pressure (mm Hg) Mean Δ Control-Exp. / Intraocular Pressure (mm Hg) Treated Eye: single application; for intraocular pressure / pupillary dilation: in 0.9 percent (w/v) physiological saline, summary of Tables IIIA, IIIB, IV and V
# Text: The effect of different concentrations of racemic a-methyl norepinephrine hydrochloride in 0.9 percent (w/v) physiological saline applied singly to one eye of conscious rabbits is summarized in Table I, below.
# The reported pressure and pupillary responses are the means of the maximal responses based on the time courses of the responses in pairs of eyes of individual rabbits. The number in parentheses denotes the number of experimental subjects.
# The mean time course of the ocular response to a 0.5 percent (w/v) solution of racemic a-methyl norepinephrine in 0.9 percent (w/v) physiological saline applied unilaterally to conscious rabbits is shown in Table II, below.
# The drug was applied unilaterally (treated eye). In the third column is reported the mean pressure difference in pairs of eyes of individual rabbits. The number in parentheses denotes the number of experimental subjects.
# Tables IIIA, IIIB, IV and V, below, summarize the experimental results using racemic a-methyl epinephrine, diester of a-methyl epinephrine, and diester of a-methyl norepinephrine in 0.9 percent (w/v) physiological saline.
# The drug was applied unilaterally (Exp. Eye) at T = 0 hr. In the third column is reported the mean pressure difference between pairs of eyes of individual rabbits.
# [2] = test system: intraocular pressure; conditions: Annals of Ophthalmology, 3, No. 3, 282 (March 1971); cited from earlier work
# [3] = test system: normal healthy volunteers; assay: Tonometry, tonography and pupil diameter after one drop to one eye of human subjects; type: in vivo; conditions: for intraocular pressures of the treated eyes: one drop of 0.1 percent (w/v), seven subjects
# Description: Tonometry and tonography studies were performed on normal healthy volunteers using an instrument denominated The Alcon pneumatonograph, available from Alcon Laboratories, Forth Worth, Texas. One drop of proparacaine (0.5 percent w/v) was applied to each eye prior to taking tonometric readings. The tonometer was calibrated by a manometric standard prior to initiation of these studies and checked on an air standardizer on each day of use. […] Pupil diameters were measured under normal laboratory light.
# Each drug discussed hereinafter was dissolved in sterile physiological saline.
# The reported values are the means of the maximal responses based on the time courses of the responses in pairs of eyes of individual subjects. The numbers in parentheses denote the number of experimental subjects. Po (mm Hg) is the intraocular pressure in seated subjects, C (µl min^-1 mm Hg^-1) is the outflow facility, and F (ul min^-1) is the rate of formation of the aqueous humor (subject supine).
# [4] = Solubility in water; type: physicochemical
# [5] = human, in vivo
# Description: The blood pressure and the heart rate of all subjects given the dipivaloyl a-methyl epinephrine were measured prior to and after administration of the drop. No decrease in blood pressure or heart rate was observed.
# [6] = 0.5 percent (w/v), six rabbits, time 0 hours
# [7] = 0.5 percent (w/v), six rabbits, time 1 hour
# [8] = 0.5 percent (w/v), six rabbits, time 3 hours
# [9] = 0.5 percent (w/v), six rabbits, time 4 hours
# [10] = tonographic studies on human subjects
# [11] = 0.1 percent (w/v), normal subjects
# [12] = 0.5 percent (w/v), normal subjects
# [13] = 0.5 percent (w/v) solution, eight rabbits, time 0 hours
# [14] = 0.5 percent (w/v) solution, eight rabbits, time 0.5 hours
# [15] = 0.5 percent (w/v) solution, eight rabbits, time 1.0 hours
# [16] = 0.5 percent (w/v) solution, eight rabbits, time 3.0 hours
# [17] = 0.5 percent (w/v) solution, eight rabbits, time 5.0 hours
# [18] = 0.5 percent (w/v) solution, eight rabbits, time 24.0 hours
# [19] = 0.5 percent (w/v), two normal subjects
smiles,measurement,setting,value
"CC(N)C(O)c1ccc(O)c(O)c1 (racemic) [α-Methyl Norepinephrine, a-methyl norepinephrine]",Intraocular Pressure (mm Hg) Mean Δ,[1]; 0.1 percent wt. by volume,0.9 ± 0.3 (4) mm Hg
same,Pupil Diameter (mm) Mean Δ,[1]; 0.1 percent wt. by volume,0.9 ± 0.4 (4) mm
same,Intraocular Pressure (mm Hg) Exp. Eye,[1]; 0.1 percent wt. by volume,20.6 ± 1.3 mm Hg
same,Pupil Diameter (mm) Exp. Eye,[1]; 0.1 percent wt. by volume,4.6 ± 0.47 mm
same,Intraocular Pressure (mm Hg) Mean Δ,[1]; 0.3 percent wt. by volume,4.5 ± 0.3 (4) mm Hg
same,Pupil Diameter (mm) Mean Δ,[1]; 0.3 percent wt. by volume,1.2 ± 0.63 (4) mm
same,Intraocular Pressure (mm Hg) Exp. Eye,[1]; 0.3 percent wt. by volume,16.5 ± 0.3 mm Hg
same,Pupil Diameter (mm) Exp. Eye,[1]; 0.3 percent wt. by volume,4.4 ± 0.9 mm
same,Intraocular Pressure (mm Hg) Mean Δ Control-Exp.,[1]; [6],0.3 ± 0.3 (6) mm Hg
same,Intraocular Pressure (mm Hg) Treated Eye,[1]; [6],22.8 ± 1.4 (6) mm Hg
same,Intraocular Pressure (mm Hg) Mean Δ Control-Exp.,[1]; [7],2.8 ± 0.9 (6) mm Hg
same,Intraocular Pressure (mm Hg) Treated Eye,[1]; [7],20.2 ± 1.6 (6) mm Hg
same,Intraocular Pressure (mm Hg) Mean Δ Control-Exp.,[1]; [8],7.2 ± 0.9 (6) mm Hg
same,Intraocular Pressure (mm Hg) Treated Eye,[1]; [8],15.8 ± 1.3 (6) mm Hg
same,Intraocular Pressure (mm Hg) Mean Δ Control-Exp.,[1]; [9],6.3 ± 1.2 (6) mm Hg
same,Intraocular Pressure (mm Hg) Treated Eye,[1]; [9],16.7 ± 1.2 (6) mm Hg
same,Intraocular Pressure (mm Hg) Mean Δ,[1]; 0.5 percent wt. by volume,6.0 ± 0.3 (4) mm Hg
same,Pupil Diameter (mm) Mean Δ,[1]; 0.5 percent wt. by volume,0.9 ± 0.5 (4) mm
same,Intraocular Pressure (mm Hg) Exp. Eye,[1]; 0.5 percent wt. by volume,15.5 ± 0.8 mm Hg
same,Pupil Diameter (mm) Exp. Eye,[1]; 0.5 percent wt. by volume,3.9 ± 0.4 mm
same,Intraocular Pressure (mm Hg) Mean Δ,[1]; 0.8 percent wt. by volume,6.8 ± 0.7 (6) mm Hg
same,Pupil Diameter (mm) Mean Δ,[1]; 0.8 percent wt. by volume,1.1 ± 0.30 (6) mm
same,Intraocular Pressure (mm Hg) Exp. Eye,[1]; 0.8 percent wt. by volume,15.7 ± 1.1 mm Hg
same,Pupil Diameter (mm) Exp. Eye,[1]; 0.8 percent wt. by volume,4.8 ± 0.42 mm
same,Intraocular Pressure (mm Hg) Mean Δ,[1]; 1.0 percent wt. by volume,7.4 ± 0.7 (10) mm Hg
same,Pupil Diameter (mm) Mean Δ,[1]; 1.0 percent wt. by volume,3.4 ± 0.4 (10) mm
same,Intraocular Pressure (mm Hg) Exp. Eye,[1]; 1.0 percent wt. by volume,14.3 ± 0.6 mm Hg
same,Pupil Diameter (mm) Exp. Eye,[1]; 1.0 percent wt. by volume,7.2 ± 0.51 mm
same,lowering intraocular pressure,[2],inactive
"CNC(C)C(O)c1ccc(OC(=O)C(C)(C)C)c(OC(=O)C(C)(C)C)c1 (centres unmarked) [4-(2-N-methylamino-1-hydroxypropyl)-1,2-dipivaloyloxybenzene hydrochloride]",pupillary response,"[3]; 0.1 percent (w/v), normal subject",almost complete lack of pupillary response
same,intraocular pressures of the treated eyes,[3]; 24 hours,recovered
same,intraocular pressures of the treated eyes,[3]; at 1 and 5 hours,significantly decreased
same,outflow facility,[3]; [10],increase
same,rate of formation of the aqueous humor,[3]; [10],reduction
"CC(N)C(O)c1ccc(OC(=O)C(C)(C)C)c(OC(=O)C(C)(C)C)c1 (centres unmarked) [Compound 5, 4-(2-amino-1-hyaroxypropyt)-1,2-dipivaioyioxybenzene hydrochloride]",solubility in water,[4],freely soluble in water
CNC(C)C(O)c1ccc(OC(=O)C(C)(C)C)c(OC(=O)C(C)(C)C)c1 (centres unmarked) [diester of a-methyl epinephrine],intraocular pressure,[1],reducing intraocular pressure
same,pupillary dilation,[1],lack of pupillary dilation
CC(N)C(O)c1ccc(OC(=O)C(C)(C)C)c(OC(=O)C(C)(C)C)c1 (centres unmarked) [diester of a-methyl norepinephrine],intraocular pressure,[1],reducing intraocular pressure
same,pupillary dilation,[1],lack of pupillary dilation
CNC(C)C(O)c1ccc(OC(=O)C(C)(C)C)c(OC(=O)C(C)(C)C)c1 (centres unmarked) [dipivaloyl a-methyl epinephrine],intraocular pressure of the treated eye,"[3]; one drop of 0.05 percent (w/v), three normal human subjects, at 1 and 3 hours",decreased
same,blood pressure,[5],No decrease
same,heart rate,[5],No decrease
"CNCC(O)c1ccc(OC(=O)C(C)(C)C)c(OC(=O)C(C)(C)C)c1 (centres unmarked) [dipivaloyl epinephrine, reference compound]",intraocular pressure response,[3]; [11],no effect on intraocular pressure
same,intraocular pressure response,[3]; [12],significant decrease of intraocular pressure
same,mydriasis,[3]; [12],marked mydriasis
same,intraocular pressure response at 1 hour,"[3]; normal subjects, 1 hour after application",no significant pressure response
"CC(C)(C)NC[C@H](O)COc1nsnc1N1CCOCC1 [timolol maleate, reference compound]",intraocular pressure response,[3]; [11],no demonstrable pressure response
same,intraocular pressure response,[3]; [12],did give a pressure response
same,pupillary response,"[3]; normal subjects, concentration not given",lack of pupillary response
same,outflow facility,[3]; [10],no effect
"CNC(C)C(O)c1ccc(O)c(O)c1 (stereo not drawn) [α-methyl Epinephrine Hydrochloride, a-methyl epinephrine hydrochloride]",Intraocular Pressure (mm Hg) Mean Δ Control-Exp.,[1]; [13],−0.1 ± 0.2 mm Hg
same,Intraocular Pressure (mm Hg) Treated Eye,[1]; [13],22.7 ± 0.6 mm Hg
same,Intraocular Pressure (mm Hg) Mean Δ Control-Exp.,[1]; [14],3.3 ± 0.8 mm Hg
same,Intraocular Pressure (mm Hg) Treated Eye,[1]; [14],19.4 ± 1.3 mm Hg
same,Intraocular Pressure (mm Hg) Mean Δ Control-Exp.,[1]; [15],5.9 ± 0.6 mm Hg
same,Intraocular Pressure (mm Hg) Treated Eye,[1]; [15],15.9 ± 1.2 mm Hg
same,Intraocular Pressure (mm Hg) Mean Δ Control-Exp.,[1]; [16],6.0 ± 0.8 mm Hg
same,Intraocular Pressure (mm Hg) Treated Eye,[1]; [16],14.1 ± 0.5 mm Hg
same,Intraocular Pressure (mm Hg) Mean Δ Control-Exp.,[1]; [17],5.5 ± 0.7 mm Hg
same,Intraocular Pressure (mm Hg) Treated Eye,[1]; [17],14.6 ± 0.6 mm Hg
same,Intraocular Pressure (mm Hg) Mean Δ Control-Exp.,[1]; [18],0.6 ± 0.1 mm Hg
same,Intraocular Pressure (mm Hg) Treated Eye,[1]; [18],22.9 ± 0.9 mm Hg
same,intraocular pressure,[1],reducing intraocular pressure
same,pupillary dilation,[1],lack of pupillary dilation
same,intraocular pressure in the treated eyes,[3]; [19],significant decrease
same,mydriatic response,[3]; [19],not associated with a mydriatic response
same,time to development of the decrease of intraocular pressure,[3]; [19],≤ 1 h
same,lowering intraocular pressure,[2],inactive
